The supplement of paper PMC10307832

Key:
Assay in all cases: relative viability (nuclei count vs DMSO), 5 days (fraction); higher = more cells survive
Palbociclib + Pemetrexed = compound: CC(=O)c1c(C)c2cnc(Nc3ccc(N4CCNCC4)cn3)nc2n(C2CCCC2)c1=O [Palbociclib] + Nc1nc2[nH]cc(CCc3ccc(C(=O)N[C@@H](CCC(=O)O)C(=O)O)cc3)c2c(=O)[nH]1 [Pemetrexed] (partner 0.2 µM)
Procedure, shortened: (§1)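 Relative viability equals treated-well nuclei counts divided by vehicle-well nuclei counts. Counts came from 4× images of lung cancer cell lines grown in 1536-well plates for 5 days after pin-tool dosing on the day after seeding. Dosing used one drug alone or a fixed anchor-drug dose plus five library-drug doses (not always all listed) in √10 steps, and values are medians of duplicate plates.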

Palbociclib + Foretinib = compound: CC(=O)c1c(C)c2cnc(Nc3ccc(N4CCNCC4)cn3)nc2n(C2CCCC2)c1=O [Palbociclib] + COc1cc2c(Oc3ccc(NC(=O)C4(C(=O)Nc5ccc(F)cc5)CC4)cc3F)ccnc2cc1OCCCN1CCOCC1 [Foretinib] (partner 0.25 µM)
Procedure, shortened: as §1

Palbociclib + Vorinostat = compound: CC(=O)c1c(C)c2cnc(Nc3ccc(N4CCNCC4)cn3)nc2n(C2CCCC2)c1=O [Palbociclib] + O=C(CCCCCCC(=O)Nc1ccccc1)NO [Vorinostat] (partner 1 µM)
Procedure, shortened: as §1

Cell Line: NCI-H1666
- relative viability (Palbociclib + Pemetrexed; first compound 0.01 µM): 0.802
- relative viability (Palbociclib + Pemetrexed; first compound 0.03162 µM): 0.822
- relative viability (Palbociclib + Pemetrexed; first compound 0.1 µM): 0.798
- relative viability (Palbociclib + Pemetrexed; first compound 0.3162 µM): 0.772
- relative viability (Palbociclib + Pemetrexed; first compound 1 µM): 0.638
- relative viability (Palbociclib + Foretinib; first compound 0.01 µM): 0.998
- relative viability (Palbociclib + Foretinib; first compound 0.03162 µM): 0.941
- relative viability (Palbociclib + Foretinib; first compound 0.1 µM): 0.875
- relative viability (Palbociclib + Foretinib; first compound 0.3162 µM): 0.7
- relative viability (Palbociclib + Foretinib; first compound 1 µM): 0.553
- relative viability (Palbociclib + Vorinostat; first compound 0.01 µM): 1.05
- relative viability (Palbociclib + Vorinostat; first compound 0.03162 µM): 0.947
- relative viability (Palbociclib + Vorinostat; first compound 0.1 µM): 0.836
- relative viability (Palbociclib + Vorinostat; first compound 0.3162 µM): 0.835
- relative viability (Palbociclib + Vorinostat; first compound 1 µM): 0.788

Cell Line: NCI-H661
- relative viability (Palbociclib + Pemetrexed; first compound 0.01 µM): 0.878
- relative viability (Palbociclib + Pemetrexed; first compound 0.03162 µM): 0.792
- relative viability (Palbociclib + Pemetrexed; first compound 0.1 µM): 0.645
- relative viability (Palbociclib + Pemetrexed; first compound 0.3162 µM): 0.571
- relative viability (Palbociclib + Pemetrexed; first compound 1 µM): 0.416
- relative viability (Palbociclib + Foretinib; first compound 0.01 µM): 1.01
- relative viability (Palbociclib + Foretinib; first compound 0.03162 µM): 0.792
- relative viability (Palbociclib + Foretinib; first compound 0.1 µM): 0.695
- relative viability (Palbociclib + Foretinib; first compound 0.3162 µM): 0.626
- relative viability (Palbociclib + Foretinib; first compound 1 µM): 0.495
- relative viability (Palbociclib + Vorinostat; first compound 0.01 µM): 0.748
- relative viability (Palbociclib + Vorinostat; first compound 0.03162 µM): 0.598
- relative viability (Palbociclib + Vorinostat; first compound 0.1 µM): 0.561
- relative viability (Palbociclib + Vorinostat; first compound 0.3162 µM): 0.433
- relative viability (Palbociclib + Vorinostat; first compound 1 µM): 0.425

Cell Line: LU99A
- relative viability (Palbociclib + Pemetrexed; first compound 0.01 µM): 0.176
- relative viability (Palbociclib + Pemetrexed; first compound 0.1 µM): 0.158
- relative viability (Palbociclib + Pemetrexed; first compound 0.3162 µM): 0.171
- relative viability (Palbociclib + Pemetrexed; first compound 1 µM): 0.19
- relative viability (Palbociclib + Foretinib; first compound 0.01 µM): 0.782
- relative viability (Palbociclib + Foretinib; first compound 0.03162 µM): 0.82
- relative viability (Palbociclib + Foretinib; first compound 0.1 µM): 0.765
- relative viability (Palbociclib + Foretinib; first compound 0.3162 µM): 0.724
- relative viability (Palbociclib + Foretinib; first compound 1 µM): 0.583
- relative viability (Palbociclib + Vorinostat; first compound 0.01 µM): 0.517
- relative viability (Palbociclib + Vorinostat; first compound 0.1 µM): 0.435
- relative viability (Palbociclib + Vorinostat; first compound 0.3162 µM): 0.587
- relative viability (Palbociclib + Vorinostat; first compound 1 µM): 0.399

Cell Line: HCC-15
- relative viability (Palbociclib + Pemetrexed; first compound 0.01 µM): 0.217
- relative viability (Palbociclib + Pemetrexed; first compound 0.1 µM): 0.246
- relative viability (Palbociclib + Pemetrexed; first compound 0.3162 µM): 0.247
- relative viability (Palbociclib + Pemetrexed; first compound 1 µM): 0.227
- relative viability (Palbociclib + Foretinib; first compound 0.01 µM): 1
- relative viability (Palbociclib + Foretinib; first compound 0.1 µM): 0.902
- relative viability (Palbociclib + Foretinib; first compound 0.3162 µM): 0.892
- relative viability (Palbociclib + Foretinib; first compound 1 µM): 0.716
- relative viability (Palbociclib + Vorinostat; first compound 0.01 µM): 0.871
- relative viability (Palbociclib + Vorinostat; first compound 0.1 µM): 0.768
- relative viability (Palbociclib + Vorinostat; first compound 0.3162 µM): 0.684
- relative viability (Palbociclib + Vorinostat; first compound 1 µM): 0.581

Cell Line: NCI-H1355
- relative viability (Palbociclib + Pemetrexed; first compound 0.01 µM): 1.13
- relative viability (Palbociclib + Pemetrexed; first compound 0.03162 µM): 0.548
- relative viability (Palbociclib + Pemetrexed; first compound 0.1 µM): 0.947
- relative viability (Palbociclib + Pemetrexed; first compound 0.3162 µM): 0.912
- relative viability (Palbociclib + Pemetrexed; first compound 1 µM): 0.739
- relative viability (Palbociclib + Foretinib; first compound 0.01 µM): 1.03
- relative viability (Palbociclib + Foretinib; first compound 0.03162 µM): 0.894
- relative viability (Palbociclib + Foretinib; first compound 0.1 µM): 0.902
- relative viability (Palbociclib + Foretinib; first compound 0.3162 µM): 0.85
- relative viability (Palbociclib + Foretinib; first compound 1 µM): 0.715
- relative viability (Palbociclib + Vorinostat; first compound 0.01 µM): 0.619
- relative viability (Palbociclib + Vorinostat; first compound 0.03162 µM): 0.578
- relative viability (Palbociclib + Vorinostat; first compound 0.1 µM): 0.548
- relative viability (Palbociclib + Vorinostat; first compound 0.3162 µM): 0.629
- relative viability (Palbociclib + Vorinostat; first compound 1 µM): 0.465

Cell Line: NCI-H522
- relative viability (Palbociclib + Pemetrexed; first compound 0.01 µM): 1.2
- relative viability (Palbociclib + Pemetrexed; first compound 0.03162 µM): 0.504
- relative viability (Palbociclib + Pemetrexed; first compound 0.1 µM): 0.99
- relative viability (Palbociclib + Pemetrexed; first compound 0.3162 µM): 1.02
- relative viability (Palbociclib + Pemetrexed; first compound 1 µM): 0.932
- relative viability (Palbociclib + Vorinostat; first compound 0.01 µM): 0.912
- relative viability (Palbociclib + Vorinostat; first compound 0.03162 µM): 0.536
- relative viability (Palbociclib + Vorinostat; first compound 0.1 µM): 0.906
- relative viability (Palbociclib + Vorinostat; first compound 0.3162 µM): 1.03
- relative viability (Palbociclib + Vorinostat; first compound 1 µM): 0.802

Cell Line: LK-2
- relative viability (Palbociclib + Pemetrexed; first compound 0.01 µM): 0.283
- relative viability (Palbociclib + Pemetrexed; first compound 0.03162 µM): 0.175
- relative viability (Palbociclib + Pemetrexed; first compound 0.1 µM): 0.205
- relative viability (Palbociclib + Pemetrexed; first compound 0.3162 µM): 0.205
- relative viability (Palbociclib + Pemetrexed; first compound 1 µM): 0.238
- relative viability (Palbociclib + Foretinib; first compound 0.01 µM): 1.12
- relative viability (Palbociclib + Foretinib; first compound 0.1 µM): 1.18
- relative viability (Palbociclib + Foretinib; first compound 0.3162 µM): 1.27
- relative viability (Palbociclib + Foretinib; first compound 1 µM): 1.05
- relative viability (Palbociclib + Vorinostat; first compound 0.01 µM): 0.383
- relative viability (Palbociclib + Vorinostat; first compound 0.03162 µM): 0.217
- relative viability (Palbociclib + Vorinostat; first compound 0.1 µM): 0.281
- relative viability (Palbociclib + Vorinostat; first compound 0.3162 µM): 0.248
- relative viability (Palbociclib + Vorinostat; first compound 1 µM): 0.324

Cell Line: 201T
- relative viability (Palbociclib + Pemetrexed; first compound 0.01 µM): 0.343
- relative viability (Palbociclib + Pemetrexed; first compound 0.03162 µM): 0.342
- relative viability (Palbociclib + Pemetrexed; first compound 0.1 µM): 0.358
- relative viability (Palbociclib + Pemetrexed; first compound 0.3162 µM): 0.372
- relative viability (Palbociclib + Pemetrexed; first compound 1 µM): 0.283
- relative viability (Palbociclib + Foretinib; first compound 0.01 µM): 0.932
- relative viability (Palbociclib + Foretinib; first compound 0.03162 µM): 0.841
- relative viability (Palbociclib + Foretinib; first compound 0.1 µM): 0.72
- relative viability (Palbociclib + Foretinib; first compound 0.3162 µM): 0.77
- relative viability (Palbociclib + Foretinib; first compound 1 µM): 0.419
- relative viability (Palbociclib + Vorinostat; first compound 0.01 µM): 1.02
- relative viability (Palbociclib + Vorinostat; first compound 0.03162 µM): 0.567
- relative viability (Palbociclib + Vorinostat; first compound 0.1 µM): 0.837
- relative viability (Palbociclib + Vorinostat; first compound 0.3162 µM): 0.752
- relative viability (Palbociclib + Vorinostat; first compound 1 µM): 0.532

Cell Line: LCLC-97TM1
- relative viability (Palbociclib + Pemetrexed; first compound 0.01 µM): 0.201
- relative viability (Palbociclib + Pemetrexed; first compound 0.1 µM): 0.168
- relative viability (Palbociclib + Pemetrexed; first compound 0.3162 µM): 0.156
- relative viability (Palbociclib + Pemetrexed; first compound 1 µM): 0.167
- relative viability (Palbociclib + Foretinib; first compound 0.01 µM): 0.861
- relative viability (Palbociclib + Foretinib; first compound 0.03162 µM): 0.883
- relative viability (Palbociclib + Foretinib; first compound 0.1 µM): 0.854
- relative viability (Palbociclib + Foretinib; first compound 0.3162 µM): 0.67
- relative viability (Palbociclib + Foretinib; first compound 1 µM): 0.514
- relative viability (Palbociclib + Vorinostat; first compound 0.01 µM): 0.698
- relative viability (Palbociclib + Vorinostat; first compound 0.1 µM): 0.423
- relative viability (Palbociclib + Vorinostat; first compound 0.3162 µM): 0.363
- relative viability (Palbociclib + Vorinostat; first compound 1 µM): 0.249

Cell Line: NCI-H1703
- relative viability (Palbociclib + Foretinib; first compound 0.01 µM): 0.259
- relative viability (Palbociclib + Foretinib; first compound 0.03162 µM): 0.308
- relative viability (Palbociclib + Foretinib; first compound 0.1 µM): 0.287
- relative viability (Palbociclib + Foretinib; first compound 0.3162 µM): 0.28
- relative viability (Palbociclib + Foretinib; first compound 1 µM): 0.292

Cell Line: NCI-H1792
- relative viability (Palbociclib + Pemetrexed; first compound 0.01 µM): 0.984
- relative viability (Palbociclib + Pemetrexed; first compound 0.03162 µM): 0.557
- relative viability (Palbociclib + Pemetrexed; first compound 0.1 µM): 0.438
- relative viability (Palbociclib + Pemetrexed; first compound 0.3162 µM): 0.427
- relative viability (Palbociclib + Pemetrexed; first compound 1 µM): 0.264

Cell Line: Calu-6
- relative viability (Palbociclib + Foretinib; first compound 0.01 µM): 0.879
- relative viability (Palbociclib + Foretinib; first compound 0.03162 µM): 0.808
- relative viability (Palbociclib + Foretinib; first compound 0.1 µM): 0.714
- relative viability (Palbociclib + Foretinib; first compound 0.3162 µM): 0.672
- relative viability (Palbociclib + Foretinib; first compound 1 µM): 0.463

Cell Line: HCC-44
- relative viability (Palbociclib + Pemetrexed; first compound 0.01 µM): 0.626
- relative viability (Palbociclib + Pemetrexed; first compound 0.03162 µM): 0.63
- relative viability (Palbociclib + Pemetrexed; first compound 0.1 µM): 0.592
- relative viability (Palbociclib + Pemetrexed; first compound 0.3162 µM): 0.634
- relative viability (Palbociclib + Pemetrexed; first compound 1 µM): 0.666
- relative viability (Palbociclib + Vorinostat; first compound 0.01 µM): 1.09
- relative viability (Palbociclib + Vorinostat; first compound 0.03162 µM): 1.08
- relative viability (Palbociclib + Vorinostat; first compound 0.1 µM): 1.15
- relative viability (Palbociclib + Vorinostat; first compound 0.3162 µM): 1.03
- relative viability (Palbociclib + Vorinostat; first compound 1 µM): 1.13

Cell Line: IA-LM
- relative viability (Palbociclib + Foretinib; first compound 0.01 µM): 1.06
- relative viability (Palbociclib + Foretinib; first compound 0.03162 µM): 0.959
- relative viability (Palbociclib + Foretinib; first compound 0.1 µM): 0.862
- relative viability (Palbociclib + Foretinib; first compound 0.3162 µM): 0.514
- relative viability (Palbociclib + Foretinib; first compound 1 µM): 0.313
- relative viability (Palbociclib + Vorinostat; first compound 0.01 µM): 0.955
- relative viability (Palbociclib + Vorinostat; first compound 0.1 µM): 0.661
- relative viability (Palbociclib + Vorinostat; first compound 0.3162 µM): 0.724
- relative viability (Palbociclib + Vorinostat; first compound 1 µM): 0.312

Cell Line: EBC-1
- relative viability (Palbociclib + Foretinib; first compound 0.01 µM): 0.113
- relative viability (Palbociclib + Foretinib; first compound 0.03162 µM): 0.0957
- relative viability (Palbociclib + Foretinib; first compound 0.1 µM): 0.0957
- relative viability (Palbociclib + Foretinib; first compound 0.3162 µM): 0.0852
- relative viability (Palbociclib + Foretinib; first compound 1 µM): 0.0884
